ChEMBL document CHEMBL1150826, “Antibacterial diterpenes from the roots of Salvia blepharochlaena” (2001)
In brackets after ≈: the same amount, converted by molar mass. Activity calls are given as the source filed them. The calls are words filed in the database; no cut-off is given here.

Columns and labels:
Staphylococcus aureus [1] = assay: Antimicrobial activity against Staphylococcus aureus ATCC 6538 by tube dilution method; assay type: functional
[2] = tested on: Staphylococcus epidermidis; assay: Antimicrobial activity against Staphylococcus epidermidis ATCC 12228 by tube dilution method; assay type: functional
Proteus mirabilis = assay: Antimicrobial activity against Proteus mirabilis by disc-diffusion method; assay type: functional, organism-based
Enterococcus faecalis [3] = assay: Antimicrobial activity against Enterococcus faecalis ATCC 29212 by tube dilution method; assay type: functional
Bacillus subtilis [4] = assay: Antimicrobial activity against Bacillus subtilis ATCC 6633 by disc-diffusion method; assay type: functional
Bacillus subtilis [5] = assay: Antimicrobial activity against Bacillus subtilis ATCC 6633 by tube dilution method; assay type: functional
Escherichia coli = assay: Antimicrobial activity against Escherichia coli by disc-diffusion method; assay type: functional, organism-based
Candida albicans = assay: Antimicrobial activity against Candida albicans by disc-diffusion method; assay type: functional, organism-based
[6] = tested on: Staphylococcus epidermidis; assay: Antimicrobial activity against Staphylococcus epidermidis ATCC 12228 by disc-diffusion method; assay type: functional
Pseudomonas aeruginosa = assay: Antimicrobial activity against Pseudomonas aeruginosa by disc-diffusion method; assay type: functional, organism-based
Klebsiella pneumoniae = assay: Antimicrobial activity against Klebsiella pneumoniae by disc-diffusion method; assay type: functional, organism-based
Staphylococcus aureus [7] = assay: Antimicrobial activity against Staphylococcus aureus ATCC 6538 by disc-diffusion method; assay type: functional
Enterococcus faecalis [8] = assay: Antimicrobial activity against Enterococcus faecalis ATCC 29212 by disc-diffusion method; assay type: functional
[9] = tested on: Mycobacterium tuberculosis; assay: Antimycobacterial activity against Mycobacterium tuberculosis by broth microdilution method; assay type: functional, organism-based

Structure (SMILES) | MIC (Staphylococcus aureus [1]) | MIC [2] | inhibition zone (IZ) (Proteus mirabilis) | MIC (Enterococcus faecalis [3]) | inhibition zone (IZ) (Bacillus subtilis [4]) | MIC (Bacillus subtilis [5]) | inhibition zone (IZ) (Escherichia coli) | inhibition zone (IZ) (Candida albicans) | inhibition zone (IZ) [6] | inhibition zone (IZ) (Pseudomonas aeruginosa) | inhibition zone (IZ) (Klebsiella pneumoniae) | inhibition zone (IZ) (Staphylococcus aureus [7]) | inhibition zone (IZ) (Enterococcus faecalis [8]) | Activity [9]
CC(C)C1=C(O)C(=O)C2=C(C1=O)[C@H](O)C[C@H]1C(C)(C)CCC[C@]21C [HORMINONE] | 6.5 mg/L (≈ 19.6 µM) | 1.5 mg/L (≈ 4.51 µM) | inactive | 14 mg/L (≈ 42.1 µM) | >7 mm | 1.5 mg/L (≈ 4.51 µM) | inactive | inactive | >7 mm | inactive | inactive | >7 mm | >7 mm | –
CC(=O)O[C@@H]1C[C@H]2C(C)(C)CCC[C@]2(C)C2=C1C(=O)C(C(C)C)=C(O)C2=O | 10 mg/L (≈ 26.7 µM) | 6 mg/L (≈ 16 µM) | inactive | – | >7 mm | 3 mg/L (≈ 8.01 µM) | inactive | inactive | >7 mm | inactive | inactive | >7 mm | inactive | –
COc1cc2c(cc1C(C)C)CC[C@H]1C(C)(C)CCC[C@]21C(=O)O | – | – | inactive | – | >7 mm | 6.5 mg/L (≈ 19.7 µM) | inactive | inactive | inactive | inactive | inactive | inactive | inactive | –
CC(C)c1cc2c(cc1O)[C@@]1(C)CCCC(C)(C)[C@@H]1CC2 [FERRUGINOL] | > 250 mg/L | > 250 mg/L | – | – | >7 mm | > 250 mg/L | – | – | >7 mm | – | – | >7 mm | – | –
Cc1c(O)cc2c3c(ccc2c1C)C=C(C(C)C)C(=O)C3=O | – | – | – | – | – | – | – | – | – | – | – | – | – | Active
COc1cc2c3c(ccc2c(C)c1C)C=C(C(C)C)C(=O)C3=O | – | – | – | – | – | – | – | – | – | – | – | – | – | Active
COc1cc2c(ccc3c(C)c(C)ccc32)cc1C(C)C | – | – | – | – | – | – | – | – | – | – | – | – | – | Active
